Drawing on patent US4048202A (priority 1975, dated 1977), this text covers MIC for four compounds.

In brackets after ≈: the same amount, converted by molar mass. Where two headings read alike, the source gives them in different places. Some results are limits rather than exact numbers.

Assay in all cases: microbe, parasite or virus in culture
Test [1] has as its system C.botulinum (ATCC 19397). The format is cell-based. To be noted: Clostridium botulinum.
For test [2], the system named is C.perfingens (ATCC 13124). The format is cell-based, Clostridium perfingens. To be noted: Clostridium, read-out: Minimum Inhibitory Concentrations.
The subject of test [3] is C.perfingens (ATCC 1620-19). In kind it is cell-based, Clostridium perfingens. To be noted: Clostridium, read-out: Minimum Inhibitory Concentrations.
The test system of test [4] is C. paraputrificum (ATCC 1620-23). The format is cell-based. The note with it: Clostridium paraputrificum, read-out: Minimum Inhibitory Concentrations.
The subject of test [5] is B.subtilis. In kind it is cell-based. The note with it: Bacillus subtilis, read-out: Minimum Inhibitory Concentrations.
Where [6] appears, read: ATCC19397, pH 5, read-out: Minimum Inhibitory Concentrations.
Setting [7] is: ATCC19397, pH 7, read-out: Minimum Inhibitory Concentrations.

Turning to `CCCCCC(=O)OCC(O)C(=O)O` (stereo not shown) [R=5, 3-O-hexanoylglyceric acid], the MIC was determined as 10 µg/mL (≈ 49 µM) in test [1] (setting [6]); 100 µg/mL (≈ 490 µM) in test [1] (setting [7]); 100 µg/mL (≈ 490 µM) in test [2] (ATCC13124, pH 5); 1000 µg/mL (≈ 4900 µM) in test [2] (ATCC13124, pH 7); 10 µg/mL (≈ 49 µM) in test [3] (ATCC1620, pH 5); 1000 µg/mL (≈ 4900 µM) in test [3] (ATCC1620, pH 7). Also, the MIC in test [4] (ATCC1620, pH 5) is 10 µg/mL (≈ 49 µM); in test [4] (ATCC1620, pH 7), 1000 µg/mL (≈ 4900 µM); in test [5] (pH 5), 10 µg/mL (≈ 49 µM); in test [5] (pH 7), 10000 µg/mL (≈ 49000 µM).
For `CCCCCCCCCC(=O)OCC(O)C(=O)O` (stereo not shown) [R=9, 3-O-decanoylglyceric acid], the MIC in test [1] (setting [6]) was found to be 10 µg/mL (≈ 38.4 µM); in test [1] (setting [7]), 10 µg/mL (≈ 38.4 µM); in test [2] (ATCC13124, pH 5), 10 µg/mL (≈ 38.4 µM); in test [2] (ATCC13124, pH 7) it was 10 µg/mL (≈ 38.4 µM); in test [3] (ATCC1620, pH 5), 10 µg/mL (≈ 38.4 µM); in test [3] (ATCC1620, pH 7), 100 µg/mL (≈ 384 µM). Moreover, the MIC in test [4] (ATCC1620, pH 5) is 10 µg/mL (≈ 38.4 µM); in test [4] (ATCC1620, pH 7), 100 µg/mL (≈ 384 µM); in test [5] (pH 5), 10 µg/mL (≈ 38.4 µM); in test [5] (pH 7), 1000 µg/mL (≈ 3840 µM).
Regarding `CCCCCCCCCCCCC(=O)OCC(O)C(=O)O` (stereo not shown) [R=12, 3-O-tridecanoylglyceric acid], the MIC in test [1] (setting [6]) was 10 µg/mL (≈ 33.1 µM); in test [1] (setting [7]), 100 µg/mL (≈ 331 µM); in test [2] (ATCC13124, pH 5), 10 µg/mL (≈ 33.1 µM); in test [2] (ATCC13124, pH 7), 100 µg/mL (≈ 331 µM); in test [3] (ATCC1620, pH 5) it was 10 µg/mL (≈ 33.1 µM); in test [3] (ATCC1620, pH 7), 10 µg/mL (≈ 33.1 µM). Also, the MIC in test [4] (ATCC1620, pH 5) was determined as 10 µg/mL (≈ 33.1 µM); in test [4] (ATCC1620, pH 7) it was 100 µg/mL (≈ 331 µM); in test [5] (pH 5) it was 10 µg/mL (≈ 33.1 µM); in test [5] (pH 7) it was 1000 µg/mL (≈ 3310 µM).
As for `CCCCCCCCCCCCCCCC(=O)OCC(O)C(=O)O` (stereo not shown) [R=15, 3-O-hexadecanoylglyceric acid], the MIC in test [1] (setting [6]) turned out to be 100 µg/mL (≈ 290 µM); in test [1] (setting [7]), 1000 µg/mL (≈ 2900 µM); in test [2] (ATCC13124, pH 5), 10 µg/mL (≈ 29 µM); in test [2] (ATCC13124, pH 7), 1000 µg/mL (≈ 2900 µM); in test [3] (ATCC1620, pH 5), 100 µg/mL (≈ 290 µM); in test [3] (ATCC1620, pH 7) it was 100 µg/mL (≈ 290 µM). Also, the MIC in test [4] (ATCC1620, pH 5) is 10 µg/mL (≈ 29 µM); in test [4] (ATCC1620, pH 7) it was 1000 µg/mL (≈ 2900 µM); in test [5] (pH 5), more than 10000 µg/mL; in test [5] (pH 7), 10000 µg/mL (≈ 29000 µM).
